Results from ChEMBL document CHEMBL6092167, “Phosphorylation as an Effective Tool to Improve Stability and Reduce Toxicity of Antimicrobial Peptides” (J Med Chem, 2024).
Calls of active or inactive are those of the source. No cut-off for these calls is given here. Positions of bridges follow the written chain, without caps; N, C: chain ends. Non-standard residues stand in square brackets, D forms with d. Residues, ends and D or L forms follow the SMILES beside them. *: point of attachment. X1 = CC[C@H](C)CCCCC(=O)*; dDab = NCC[C@@H](N)C(=O)O; Dab = NCC[C@H](N)C(=O)O

Tests used:
[1] = Hemolytic activity in mouse erythrocyte incubated for 1 hr by microplate reader assay; format: toxicity, cell-based
[2] = Cytotoxicity against HEK293T cells incubated for 1 hr by fluorescence based microplate reader assay; format: toxicity, cell-based, HEK-293T; settings: human
[3] = Toxicity in ip dosed BALB/c mouse assessed as respiratory depression at LD50 dose measured within 1 hr by Karber method; format: organism-based; settings: in vivo
[4] = Toxicity in ip dosed BALB/c mouse assessed as rapid death at LD50 dose measured within 1 hr by Karber method; format: organism-based; settings: in vivo
[5] = Toxicity in ip dosed BALB/c mouse assessed as lateral recumbency at LD50 dose measured within 1 hr by Karber method; format: organism-based; settings: in vivo
[6] = Toxicity in ip dosed BALB/c mouse assessed as convulsions at LD50 dose measured within 1 hr by Karber method; format: organism-based; settings: in vivo
[7] = Toxicity in ip dosed BALB/c mouse assessed as lusterless hair at LD50 dose measured within 1 hr by Karber method; format: organism-based; settings: in vivo
[8] = Toxicity in ip dosed BALB/c mouse assessed as sharp breathing at LD50 dose measured within 1 hr by Karber method; format: organism-based; settings: in vivo
[9] = Toxicity in ip dosed BALB/c mouse measured after 14 days; format: organism-based; settings: in vivo, time 14 day
[10] = Toxicity in ip dosed BALB/c mouse assessed as hemorrhage in lung at LD50 dose by H and E staining based assay; format: organism-based; settings: in vivo
[11] = Toxicity in ip dosed BALB/c mouse assessed as inflammatory cell infiltration in lung at LD50 dose by H and E staining based assay; format: organism-based; settings: in vivo
[12] = Toxicity in ip dosed BALB/c mouse assessed as hemorrhage in kidney at LD50 dose by H and E staining based assay; format: organism-based; settings: in vivo
[13] = Toxicity in ip dosed BALB/c mouse assessed as inflammatory cell infiltration in kidney at LD50 dose by H and E staining based assay; format: organism-based; settings: in vivo
[14] = Toxicity in ip dosed BALB/c mouse assessed as alveolar constriction at LD50 dose by H and E staining based assay; format: organism-based; settings: in vivo
[15] = Toxicity in ip dosed BALB/c mouse assessed as pulmonary congestion at LD50 dose by H and E staining based assay; format: organism-based; settings: in vivo
[16] = Toxicity in ip dosed BALB/c mouse assessed as renal cell swelling at LD50 dose by H and E staining based assay; format: organism-based; settings: in vivo
Klebsiella pneumoniae [17] = assay: Antibacterial activity against Klebsiella pneumoniae 700603 preincubated for 6 hrs in presence of trypsin followed by heat inactivation for 15 mins prior to bacterial addition and measured after 18 to 24 hrs by microplate reader assay; format: functional, organism-based; settings: time 18-24 hrs
Staphylococcus aureus [18] = assay: Antibacterial activity against Staphylococcus aureus ATCC 25923 preincubated for 6 hrs in presence of trypsin followed by heat inactivation for 15 mins prior to bacterial addition and measured after 18 to 24 hrs by microplate reader assay; format: functional, organism-based; settings: time 18-24 hrs
Klebsiella pneumoniae [19] = assay: Antibacterial activity against Klebsiella pneumoniae 700603 preincubated for 6 hrs in presence of chymotrypsin followed by heat inactivation for 15 mins prior to bacterial addition and measured after 18 to 24 hrs by microplate reader assay; format: functional, organism-based; settings: time 18-24 hrs
Staphylococcus aureus [20] = assay: Antibacterial activity against Staphylococcus aureus ATCC 25923 preincubated for 6 hrs in presence of chymotrypsin followed by heat inactivation for 15 mins prior to bacterial addition and measured after 18 to 24 hrs by microplate reader assay; format: functional, organism-based; settings: time 18-24 hrs
Pseudomonas aeruginosa [21] = assay: Antibiofilm activity against Pseudomonas aeruginosa ATCC 27853 assessed as eradication of preformed biofilms at 4 times MIC incubated for 24 hrs by crystal violet staining based assay; format: functional, organism-based
Escherichia coli [22] = assay: Antibiofilm activity against Escherichia coli ATCC 25922 assessed as eradication of preformed biofilms at 4 times MIC incubated for 24 hrs by crystal violet staining based assay; format: functional, organism-based
Klebsiella pneumoniae [23] = assay: Antibiofilm activity against Klebsiella pneumoniae ATCC 700603 assessed as eradication of preformed biofilms at 4 times MIC incubated for 24 hrs by crystal violet staining based assay; format: functional, organism-based
Klebsiella pneumoniae [24] = assay: Antibacterial activity against Klebsiella pneumoniae ATCC 700603 infected in BALB/c mouse lung infection model assessed as reduction in hepatic hemorrhage at 2.46 mg/kg, ip administered twice daily for 3 days and measured after 7 days; format: functional, organism-based; settings: time 10.0 day
Klebsiella pneumoniae [25] = assay: Antibacterial activity against Klebsiella pneumoniae ATCC 700603 infected in BALB/c mouse lung infection model assessed as reduction in alveolar contraction at 2.46 mg/kg, ip administered twice daily for 3 days and measured after 7 days; format: functional, organism-based; settings: time 10.0 day
Klebsiella pneumoniae [26] = assay: Antibacterial activity against Klebsiella pneumoniae ATCC 700603 infected in BALB/c mouse lung infection model assessed as reduction in pulmonary tissue bleeding at 2.46 mg/kg, ip administered twice daily for 3 days and measured after 7 days; format: functional, organism-based; settings: time 10.0 day
Staphylococcus aureus [27] = assay: Antibacterial activity against methicillin resistant Staphylococcus aureus ATCC 33591 incubated for 18 to 24 hrs by broth microdilution method; format: functional; settings: time 18-24 hrs
Staphylococcus aureus [28] = assay: Antibacterial activity against methicillin resistant Staphylococcus aureus 48 incubated for 18 to 24 hrs by broth microdilution method; format: functional; settings: time 18-24 hrs
Staphylococcus aureus [29] = assay: Antibacterial activity against Staphylococcus aureus 794 incubated for 18 to 24 hrs by broth microdilution method; format: functional; settings: time 18-24 hrs
Escherichia coli [30] = assay: Antibacterial activity against Escherichia coli 780 incubated for 18 to 24 hrs by broth microdilution method; format: functional; settings: time 18-24 hrs
Escherichia coli [31] = assay: Antibacterial activity against Escherichia coli 850 incubated for 18 to 24 hrs by broth microdilution method; format: functional; settings: time 18-24 hrs
Pseudomonas aeruginosa [32] = assay: Antibacterial activity against Pseudomonas aeruginosa 119 incubated for 18 to 24 hrs by broth microdilution method; format: functional; settings: time 18-24 hrs
Staphylococcus aureus [33] = assay: Antibacterial activity against Staphylococcus aureus ATCC 25923 incubated for 18 to 24 hrs by broth microdilution method; format: functional; settings: time 18-24 hrs
Bacillus subtilis = assay: Antibacterial activity against Bacillus subtilis ATCC 23857 incubated for 18 to 24 hrs by broth microdilution method; format: functional; settings: time 18-24 hrs
Escherichia coli [34] = assay: Antibacterial activity against Escherichia coli ATCC 25922 incubated for 18 to 24 hrs by broth microdilution method; format: functional; settings: time 18-24 hrs
Pseudomonas aeruginosa [35] = assay: Antibacterial activity against Pseudomonas aeruginosa ATCC 27853 incubated for 18 to 24 hrs by broth microdilution method; format: functional; settings: time 18-24 hrs
Klebsiella pneumoniae [36] = assay: Antibacterial activity against Klebsiella pneumoniae ATCC 700603 incubated for 18 to 24 hrs by broth microdilution method; format: functional; settings: time 18-24 hrs
Acinetobacter baumannii = assay: Antibacterial activity against Acinetobacter baumannii ATCC 19606 incubated for 18 to 24 hrs by broth microdilution method; format: functional; settings: time 18-24 hrs
Staphylococcus aureus [37] = assay: Antibacterial activity against Staphylococcus aureus ATCC 25923 assessed as fold increase in MIC in presence of Na+; format: functional
Staphylococcus aureus [38] = assay: Bactericidal activity against Staphylococcus aureus ATCC 25923 at 2 times MIC incubated for 24 hrs by time kill assay; format: functional
Klebsiella pneumoniae [39] = assay: Synergistic antibacterial activity against Klebsiella pneumoniae ATCC 700603 assessed as fractional inhibitory concentration index at 1/4 to 4 times MIC incubated for 18 to 24 hrs in presence of ciprofloxacin by checkerboard assay; format: functional; settings: time 18-24 hrs
Klebsiella pneumoniae [40] = assay: Additive antibacterial activity against Klebsiella pneumoniae ATCC 700603 assessed as fractional inhibitory concentration index at 1/4 to 4 times MIC incubated for 18 to 24 hrs in presence of kanamycin by checkerboard assay; format: functional; settings: time 18-24 hrs
Klebsiella pneumoniae [41] = assay: Drug resistance development in Klebsiella pneumoniae ATCC 700603 assessed as fold increase in MIC measured after 20 passage; format: functional

## CC(C)CCCCC(=O)N[C@@H](CCN)C(=O)N[C@H](C(=O)N[C@@H](CCN)C(=O)N[C@H]1CCNC(=O)[C@H]([C@@H](C)O)NC(=O)[C@H](CCN)NC(=O)[C@H](CCN)NC(=O)[C@H](CC(C)C)NC(=O)[C@@H](Cc2ccccc2)NC(=O)[C@H](CCN)NC1=O)[C@@H](C)O.CC[C@H](C)CCCCC(=O)N[C@@H](CCN)C(=O)N[C@H](C(=O)N[C@@H](CCN)C(=O)N[C@H]1CCNC(=O)[C@H]([C@@H](C)O)NC(=O)[C@H](CCN)NC(=O)[C@H](CCN)NC(=O)[C@H](CC(C)C)NC(=O)[C@@H](Cc2ccccc2)NC(=O)[C@H](CCN)NC1=O)[C@@H](C)O (X1-[Dab]T[Dab][Dab][Dab][dF]L[Dab][Dab]T; lactam 4-C) [listing 1 of 2 here]
[1]
  MHC: > 256 µM
[2]
  CC50 at 1 h: 128 µM
[3]
  Activity: Toxic
[4]
  Activity: Toxic
[5]
  Activity: Toxic
[6]
  Activity: Toxic
[7]
  Activity: Toxic
[8]
  Activity: Toxic
[9]
  LD50 at 336 h: 25.7 mg/kg
[10]
  Activity: Toxic
[11]
  Activity: Toxic
[12]
  Activity: Toxic
[13]
  Activity: Toxic
[14]
  Activity: Toxic
[15]
  Activity: Toxic
[16]
  Activity: Toxic

## CC(C)CCCCC(=O)N[C@@H](CCN)C(=O)N[C@H](C(=O)N[C@@H](CCN)C(=O)N[C@H]1CCNC(=O)[C@H]([C@@H](C)O)NC(=O)[C@H](CCN)NC(=O)[C@H](CCN)NC(=O)[C@H](CC(C)C)NC(=O)[C@@H](Cc2ccccc2)NC(=O)[C@@H](CCN)NC1=O)[C@@H](C)O.CC[C@H](C)CCCCC(=O)N[C@@H](CCN)C(=O)N[C@H](C(=O)N[C@@H](CCN)C(=O)N[C@H]1CCNC(=O)[C@H]([C@@H](C)O)NC(=O)[C@H](CCN)NC(=O)[C@H](CCN)NC(=O)[C@H](CC(C)C)NC(=O)[C@@H](Cc2ccccc2)NC(=O)[C@@H](CCN)NC1=O)[C@@H](C)O (X1-[Dab]T[Dab][Dab][dDab][dF]L[Dab][Dab]T; lactam 4-C)
Klebsiella pneumoniae [17]
  Activity: Active; High Enzymatic Stability
Staphylococcus aureus [18]
  Activity: Active; High Enzymatic Stability
Klebsiella pneumoniae [19]
  Activity: Active; High Enzymatic Stability
Staphylococcus aureus [20]
  Activity: Active; High Enzymatic Stability
Pseudomonas aeruginosa [21]
  Activity: Active
Escherichia coli [22]
  Activity: Active
Klebsiella pneumoniae [23]
  Activity: Active
Klebsiella pneumoniae [24]
  Activity: inactive
Klebsiella pneumoniae [25]
  Activity: inactive
Klebsiella pneumoniae [26]
  Activity: inactive

## CC(C)CCCCC(=O)N[C@@H](CCN)C(=O)N[C@H](C(=O)N[C@@H](CCN)C(=O)N[C@H]1CCNC(=O)[C@H]([C@@H](C)O)NC(=O)[C@H](CCN)NC(=O)[C@H](CCN)NC(=O)[C@H](CC(C)C)NC(=O)[C@@H](Cc2ccccc2)NC(=O)[C@H](CCN)NC1=O)[C@@H](C)O.CC[C@H](C)CCCCC(=O)N[C@@H](CCN)C(=O)N[C@H](C(=O)N[C@@H](CCN)C(=O)N[C@H]1CCNC(=O)[C@H]([C@@H](C)O)NC(=O)[C@H](CCN)NC(=O)[C@H](CCN)NC(=O)[C@H](CC(C)C)NC(=O)[C@@H](Cc2ccccc2)NC(=O)[C@H](CCN)NC1=O)[C@@H](C)O (X1-[Dab]T[Dab][Dab][Dab][dF]L[Dab][Dab]T; lactam 4-C) [listing 2 of 2 here]
Staphylococcus aureus [27]
  MIC: 16 µM
Staphylococcus aureus [28]
  MIC: 16 µM
Staphylococcus aureus [29]
  MIC: 8 µM
Escherichia coli [30]
  MIC: 2 µM
Escherichia coli [31]
  MIC: 2 µM
Pseudomonas aeruginosa [32]
  MIC: 2 µM
Staphylococcus aureus [33]
  MIC: 16 µM
Bacillus subtilis
  MIC: 4 µM
Escherichia coli [34]
  MIC: 4 µM
Pseudomonas aeruginosa [35]
  MIC: 2 µM
Klebsiella pneumoniae [36]
  MIC: 4 µM
Acinetobacter baumannii
  MIC: 2 µM
Staphylococcus aureus [37]
  fold change (FC): 4
Staphylococcus aureus [38]
  Activity: 100%
Klebsiella pneumoniae [39]
  fractional inhibitory concentration index (FICI): 0.313
Klebsiella pneumoniae [40]
  fractional inhibitory concentration index (FICI): 0.313
Klebsiella pneumoniae [41]
  fold change (FC): 64
